Measured values published in patent publication US20220242846A1, “ISOINDOLINONE COMPOUNDS” (Monte Rosa Therapeutics AG, priority 2019, published 2022).
Where two headings read alike, the source gives them in different places.

Columns and labels:
Type in all cases: cell-based
GSPT1 = GSPT1 (Homo sapiens, UniProt P15170+Q96SW2); experiment: Immunofluorescence assay for GSPT1 degradation in CAL-51 cells; design: CAL-51 cells were purchased from DSMZ (cat. Number ACC302); endogenous in cells; host or cells: CAL-51 (DSMZ ACC302); settings: compound treatment 6 hours
How it was run: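 CAL-51 cells on fibronectin-coated plates treated 6 h with compound (30 μM to 0.1 nM); fixed, stained with anti-GSPT1/Alexa-488, phalloidin and DAPI, imaged by high-content microscopy. Mean GSPT1 intensity per cell normalized to controls; DC50 by non-linear regression.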

[1] = test system: Human mammary epithelial cells (HMEC) engineered to express EGFP alone (non myc); experiment: 3D spheroid assay, non myc-HMEC (CellTiterGlo3D viability); settings: 120 h, 3D spheroids, 5 days with compound, read-out: Code: EC50 value in the non myc-HMEC assay
[2] = test system: Human mammary epithelial cells (HMEC) engineered to express c-myc tagged with EGFP; experiment: 3D spheroid assay, myc-HMEC (CellTiterGlo3D viability)
[3] = read-out: Code: activity for GSPT1 degradation (DC50)

Sequence of GSPT1 (P15170 whole entry): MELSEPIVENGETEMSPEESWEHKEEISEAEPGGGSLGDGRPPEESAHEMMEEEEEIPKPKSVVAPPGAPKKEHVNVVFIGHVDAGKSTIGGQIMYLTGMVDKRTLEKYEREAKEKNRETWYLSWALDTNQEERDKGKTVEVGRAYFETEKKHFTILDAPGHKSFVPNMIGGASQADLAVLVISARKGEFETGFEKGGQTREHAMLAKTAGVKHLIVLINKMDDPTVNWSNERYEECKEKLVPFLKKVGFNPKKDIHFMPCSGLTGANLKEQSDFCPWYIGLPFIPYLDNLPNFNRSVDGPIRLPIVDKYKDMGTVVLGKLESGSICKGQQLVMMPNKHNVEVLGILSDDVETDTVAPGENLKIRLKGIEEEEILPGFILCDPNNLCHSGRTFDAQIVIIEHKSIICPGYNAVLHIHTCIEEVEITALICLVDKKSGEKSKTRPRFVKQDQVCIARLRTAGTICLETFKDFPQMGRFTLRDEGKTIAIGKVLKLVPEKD
Sequence of GSPT1 (Q96SW2 whole entry): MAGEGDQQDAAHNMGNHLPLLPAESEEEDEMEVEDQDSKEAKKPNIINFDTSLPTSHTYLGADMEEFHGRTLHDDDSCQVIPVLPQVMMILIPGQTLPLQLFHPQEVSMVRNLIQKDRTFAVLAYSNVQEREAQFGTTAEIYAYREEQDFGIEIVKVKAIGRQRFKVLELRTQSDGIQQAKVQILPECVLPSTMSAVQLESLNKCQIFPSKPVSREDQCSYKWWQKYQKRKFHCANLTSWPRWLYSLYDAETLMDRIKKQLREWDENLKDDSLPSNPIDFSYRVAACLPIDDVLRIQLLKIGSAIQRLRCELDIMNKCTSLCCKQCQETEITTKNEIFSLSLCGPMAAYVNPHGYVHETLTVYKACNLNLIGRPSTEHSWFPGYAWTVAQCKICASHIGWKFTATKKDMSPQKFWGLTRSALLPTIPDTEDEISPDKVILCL
Sequence of GSPT1 (Q16531 2-1140 partner limits assumed): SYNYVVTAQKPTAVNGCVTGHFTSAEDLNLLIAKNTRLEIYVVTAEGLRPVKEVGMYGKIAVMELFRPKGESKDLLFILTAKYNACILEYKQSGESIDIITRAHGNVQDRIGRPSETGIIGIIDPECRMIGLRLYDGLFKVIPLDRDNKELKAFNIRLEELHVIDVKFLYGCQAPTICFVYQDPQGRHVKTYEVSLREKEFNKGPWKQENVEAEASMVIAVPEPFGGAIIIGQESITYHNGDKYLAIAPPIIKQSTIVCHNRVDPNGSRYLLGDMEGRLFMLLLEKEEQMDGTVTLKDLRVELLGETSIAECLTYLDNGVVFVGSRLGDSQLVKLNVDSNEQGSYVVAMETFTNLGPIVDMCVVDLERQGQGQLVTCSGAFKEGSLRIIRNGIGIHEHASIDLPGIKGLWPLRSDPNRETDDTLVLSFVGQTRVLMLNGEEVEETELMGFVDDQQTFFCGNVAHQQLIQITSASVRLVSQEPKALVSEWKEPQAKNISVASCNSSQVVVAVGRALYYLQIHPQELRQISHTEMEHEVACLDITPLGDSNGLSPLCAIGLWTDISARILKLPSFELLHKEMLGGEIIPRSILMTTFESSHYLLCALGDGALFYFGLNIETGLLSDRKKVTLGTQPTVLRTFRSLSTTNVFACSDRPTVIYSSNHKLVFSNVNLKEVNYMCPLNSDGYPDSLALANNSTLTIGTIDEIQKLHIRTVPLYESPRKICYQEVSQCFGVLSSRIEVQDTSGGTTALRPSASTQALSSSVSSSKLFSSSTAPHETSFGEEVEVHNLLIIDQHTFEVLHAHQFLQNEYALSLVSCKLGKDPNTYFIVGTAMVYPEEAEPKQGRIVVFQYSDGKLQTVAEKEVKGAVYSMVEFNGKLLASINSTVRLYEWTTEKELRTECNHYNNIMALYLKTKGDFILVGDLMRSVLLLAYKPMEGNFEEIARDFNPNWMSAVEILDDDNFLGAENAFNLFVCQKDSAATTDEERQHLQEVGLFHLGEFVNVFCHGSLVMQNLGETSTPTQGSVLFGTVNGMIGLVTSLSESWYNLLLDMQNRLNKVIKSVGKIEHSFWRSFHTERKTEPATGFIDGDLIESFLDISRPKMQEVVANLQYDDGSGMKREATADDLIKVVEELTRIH

SMILES | DC50 (GSPT1; [3]) [µM] | other results
Cc1ccc(NC(=O)NCc2ccc3c(c2)C(=O)N(C2CCC(=O)NC2=O)C3)c(Cl)c1Cl (centres unmarked) [Compound 87] | > 0.3 | 
O=C1CCC(N2Cc3ccc(CNC(=O)Nc4cccc(CN5CCOCC5)c4)cc3C2=O)C(=O)N1 (centres unmarked) [Compound 105] | > 0.3 | 
Cc1ccc(NC(=O)NCc2ccc3c(c2)C(=O)N(C2CCC(=O)NC2=O)C3)cc1Cl (centres unmarked) [Compound 8] |  | EC50 ([2]; Homo sapiens, HMEC, 120 h, 3D spheroids, 5 days with compound, read-out: Code: EC50 value in the myc-HMEC assay): ≤ 0.4 µM; EC50 ([2]; myc-HMEC 3D spheroids (compounds with code D and E), 5 days, read-out: EC50): 0.22 µM; EC50 [1]: > 10 µM

Continued, in another order:

DC50 (GSPT1; [3]) [µM] | SMILES | other results
0.1 to 0.3 | Cc1cc(C)c(NC(=O)NCc2ccc3c(c2)C(=O)N(C2CCC(=O)NC2=O)C3)cc1Cl (centres unmarked) [Compound 85] | DC50 (GSPT1; GSPT1 degradation, read-out: DC50): 0.274 µM
≤ 0.1 | Cc1c(Cl)cc(NC(=O)NCc2ccc3c(c2)C(=O)N(C2CCC(=O)NC2=O)C3)cc1CC1COCOC1 (centres unmarked) [Compound 132] | 
0.1 to 0.3 | Cc1c(Cl)cc(NC(=O)NCc2ccc3c(c2)C(=O)N(C2CCC(=O)NC2=O)C3)cc1CN(C)C (centres unmarked) [Compound 75] | EC50 [1]: > 10 µM
≤ 0.1 | Cc1c(Cl)cc(NC(=O)NCc2ccc3c(c2)C(=O)N(C2CCC(=O)NC2=O)C3)cc1CN1CCOCC1 (centres unmarked) [Compound 82] | 
